Results: patent US8796245B2 (TetraPhase Pharmaceuticals, Inc., priority 2008, dated 2014)
In brackets after ≈: the same amount, converted by molar mass. Read-outs that look alike come from different tables or passages of the source.

Experiments:
Assay type in all cases: cell-based
[1] = system: E. coli ATCC 25922 (EC107); test: Minimum inhibitory concentration assay, EC107; conditions: Escherichia coli, ATCC25922; E. coli ATCC 25922, wt; read-out: MICs EC107
Procedure: (§1) Frozen bacterial strains were thawed and subcultured onto Mueller Hinton Broth (MHB) or other appropriate media (Streptococcus requires blood and Haemophilus requires hemin and NAD). Following incubation overnight, the strains were subcultured onto Mueller Hinton Agar and again incubated overnight. […] Isolated colonies were selected to prepare a starting inoculum equivalent to a 0.5 McFarland standard. The starting inoculum was diluted 1:125 using MHB for further use. Test compounds were prepared by dilution in sterile water to a final concentration of 5.128 mg/mL. Antibiotics (stored frozen, thawed and used within 3 hours of thawing) and compounds were further diluted to the desired working concentrations.
(§2) The assays were run as follows. Fifty μL of MHB was added to wells 2-12 of a 96-well plate. One hundred […] of appropriately diluted antibiotics was added to well 1. Fifty μL of antibiotics was removed from well 1 and added to well 2 and the contents of well 2 mixed by pipetting up and down five times. Fifty μL of the mixture in well 2 was removed and added to well 3 and mixed as above. Serial dilutions were continued in the same manner through well 12. Fifty μL was removed from well 12 so that all contained 50 μL. Fifty μL of the working inoculum was then added to all test wells. A growth control well was prepared by adding 50 μL of working inoculum and 50 μL of MHB to an empty well. The plates were then incubated at 37° C. overnight, removed from the incubator and each well was read on a plate reading mirror. The lowest concentration (MIC) of test compound that inhibited the growth of the bacteria was recorded.

[2] = system: K. pneumoniae ATCC 13883 (KP109); test: Minimum inhibitory concentration assay, KP109; conditions: Klebsiella pneumoniae, ATCC13883; K. pneumoniae ATCC 13883, wt; read-out: MICs KP109
Procedure: as §1, §2

[3] = system: S. aureus ATCC 29213 (SA101, MSSA); test: Minimum inhibitory concentration assay, SA101; conditions: for MIC: Staphylococcus aureus, S. aureus ATCC 29213, MSSA control, read-out: MICs SA101; for MIC SA101 29213: control compounds, numeric MIC, 0.016 means 0.016 or lower
Procedure: as §1, §2

[4] = system: S. pneumoniae ATCC 49619 (SP106); test: Minimum inhibitory concentration assay, SP106; conditions: Streptococcus pneumoniae, ATCC49619; S. pneumoniae ATCC 49619, wt; read-out: MICs SP106
Procedure: as §1, §2

[5] = system: S. pneumoniae SP160 (tet resistant: tet M); test: Minimum inhibitory concentration assay, SP160; conditions: Streptococcus pneumoniae, read-out: MICs SP160
Procedure: as §1, §2

[6] = system: S. aureus SA161 (tet resistant: tet(M) ribosomal protection); test: Minimum inhibitory concentration assay, SA161; conditions: Staphylococcus aureus, read-out: MICs SA161
Procedure: as §1, §2

[7] = system: A. baumanii ATCC 19606 (AB110); test: Minimum inhibitory concentration assay, AB110
Procedure: as §1, §2

[8] = system: E. faecalis EF159 (tet resistant: tetM); test: Minimum inhibitory concentration assay, EF159; conditions: Enterococcus faecalis, read-out: MICs EF159
Procedure: as §1, §2

[9] = system: E. faecalis ATCC 29212 (EF103); test: Minimum inhibitory concentration assay, EF103; conditions: Enterococcus faecalis, ATCC29212, read-out: MICs EF103
Procedure: as §1, §2

[10] = system: P. aeruginosa ATCC 27853 (PA111); test: Minimum inhibitory concentration assay, PA111
Procedure: as §1, §2

[11] = system: S. aureus SA158 (tet resistant: tetK efflux); test: microbe, parasite or virus in culture; conditions: Staphylococcus aureus, read-out: MICs SA158
Procedure: as §1, §2

[12] = system: E. coli EC155 (tet resistant: tetA efflux); test: microbe, parasite or virus in culture
Procedure: as §1, §2

[13] = system: K. pneumoniae KP153 (tet resistant: tetA efflux); test: microbe, parasite or virus in culture; conditions: Klebsiella pneumoniae, read-out: MICs KP153
Procedure: as §1, §2

[14] = system: S. aureus ATCC 13709 (SA100, MSSA, Smith strain); test: Minimum inhibitory concentration assay, SA100; conditions: Staphylococcus aureus; S. aureus ATCC 13709, MSSA Smith strain; read-out: MICs SA100
Procedure: as §1, §2

[15] = system: E. cloacae ATCC 13047 (EC108); test: Minimum inhibitory concentration assay, EC108
Procedure: as §1, §2

[16] = Acinetobacter baumannii, ATCC19606, A. baumanii ATCC 19606, wt, read-out: MICs AB110
[17] = Pseudomonas aeruginosa, ATCC27853, P. aeruginosa ATCC 27853, wt, read-out: MICs PA111
[18] = Escherichia coli, E. coli tet resistant: tetA (efflux), read-out: MICs EC155
[19] = Enterobacter cloacae, ATCC13047, E. cloacae ATCC 13047, wt, read-out: MICs EC108
[20] = AB110, control compounds, numeric
[21] = PA111, control compounds, numeric
[22] = EC155 tetA, control compounds, numeric
[23] = EC108, control compounds, numeric

Structure (SMILES)	MIC [1] [µg/mL]	MIC [2] [µg/mL]	MIC [3] [µg/mL]	MIC [4] [µg/mL]	MIC [5] [µg/mL]	MIC [6] [µg/mL]	MIC [7, 16] [µg/mL]	MIC [8] [µg/mL]	MIC [9] [µg/mL]	MIC [10, 17] [µg/mL]	MIC [11] [µg/mL]	MIC [12, 18] [µg/mL]	MIC [13] [µg/mL]	MIC [14] [µg/mL]	MIC [15, 19] [µg/mL]	MIC SA101 29213 [3] [µg/mL]	MIC [7, 20] [µg/mL]	MIC [10, 21] [µg/mL]	MIC [12, 22] [µg/mL]	MIC [15, 23] [µg/mL]
CN(C)CC(=O)Nc1cc(F)c2c(c1O)C(=O)C1=C(O)[C@]3(O)C(=O)C(C(N)=O)=C(O)[C@@H](N(C)C)[C@@H]3C[C@@H]1C2 [Compound 23]	0.125 (≈ 0.235 µM)	0.5 (≈ 0.939 µM)	≤ 0.0156	≤ 0.0156	≤ 0.0156	0.125 (≈ 0.235 µM)	0.125 (≈ 0.235 µM)	0.0313 (≈ 0.0588 µM)	≤ 0.0156	8 (≈ 15 µM)	0.25 (≈ 0.469 µM)	8 (≈ 15 µM)	8 (≈ 15 µM)	0.5 (≈ 0.939 µM)	1 (≈ 1.88 µM)	–	–	–	–	–
CN(C)[C@@H]1C(O)=C(C(N)=O)C(=O)[C@@]2(O)C(O)=C3C(=O)c4c(O)c(NC(=O)CC5CC(F)C5)cc(F)c4C[C@H]3C[C@@H]12 (some centres unmarked) [Compound 33]	2 (≈ 3.56 µM)	4 (≈ 7.12 µM)	0.25 (≈ 0.445 µM)	≤ 0.0156	0.125 (≈ 0.223 µM)	1 (≈ 1.78 µM)	4 (≈ 7.12 µM)	1 (≈ 1.78 µM)	0.25 (≈ 0.445 µM)	> 32	2 (≈ 3.56 µM)	> 32	> 32	0.5 (≈ 0.89 µM)	16 (≈ 28.5 µM)	–	–	–	–	–
CC(C)NCC(=O)Nc1cc(F)c2c(c1O)C(=O)C1=C(O)[C@]3(O)C(=O)C(C(N)=O)=C(O)[C@@H](N(C)C)[C@@H]3C[C@@H]1C2 [Compound 16]	0.5 (≈ 0.915 µM)	1 (≈ 1.83 µM)	0.125 (≈ 0.229 µM)	≤ 0.0156	≤ 0.0156	0.25 (≈ 0.457 µM)	1 (≈ 1.83 µM)	0.0625 (≈ 0.114 µM)	0.0625 (≈ 0.114 µM)	16 (≈ 29.3 µM)	0.5 (≈ 0.915 µM)	8 (≈ 14.6 µM)	4 (≈ 7.32 µM)	0.25 (≈ 0.457 µM)	1 (≈ 1.83 µM)	–	–	–	–	–
CN(C)[C@@H]1C(O)=C(C(N)=O)C(=O)[C@@]2(O)C(O)=C3C(=O)c4c(O)c(NC(=O)CNCC(F)(F)F)cc(F)c4C[C@H]3C[C@@H]12 [Compound 22]	16 (≈ 27.3 µM)	32 (≈ 54.6 µM)	1 (≈ 1.71 µM)	0.5 (≈ 0.853 µM)	1 (≈ 1.71 µM)	2 (≈ 3.41 µM)	2 (≈ 3.41 µM)	4 (≈ 6.82 µM)	2 (≈ 3.41 µM)	> 32	4 (≈ 6.82 µM)	> 32	> 32	1 (≈ 1.71 µM)	> 32	–	–	–	–	–
CN(C)c1cc(NC(=O)CNC(C)(C)C)c(O)c2c1C[C@H]1C[C@H]3[C@H](N(C)C)C(O)=C(C(N)=O)C(=O)[C@@]3(O)C(O)=C1C2=O [Tigecycline]	–	–	–	–	–	–	–	–	–	–	–	–	–	–	–	0.06 (≈ 0.102 µM)	0.25 (≈ 0.427 µM)	8 (≈ 13.7 µM)	0.5 (≈ 0.854 µM)	0.25 (≈ 0.427 µM)
CN(C)c1ccc(O)c2c1C[C@H]1C[C@H]3[C@H](N(C)C)C(O)=C(C(N)=O)C(=O)[C@@]3(O)C(O)=C1C2=O [Minocycline]	–	–	–	–	–	–	–	–	–	–	–	–	–	–	–	0.06 (≈ 0.131 µM)	0.06 (≈ 0.131 µM)	16 (≈ 35 µM)	–	2 (≈ 4.37 µM)
CN(C)[C@@H]1C(O)=C(C(N)=O)C(=O)[C@@]2(O)C(O)=C3C(=O)c4c(O)cccc4C[C@H]3C[C@@H]12 [Sancycline]	–	–	–	–	–	–	–	–	–	–	–	–	–	–	–	0.5 (≈ 1.21 µM)	0.25 (≈ 0.603 µM)	> 32	32 (≈ 77.2 µM)	8 (≈ 19.3 µM)
